Data reported in patent publication US20240409585A1, “MACROCYCLIC IMMUNOMODULATORS” (priority 2021, published 2024).
Bridge positions count the residues as written; N and C are the ends. Square brackets hold non-standard residues; d marks the D form. Peptide text beside a SMILES is read from it. * marks the point of attachment. Tyr(3-NO2) = N[C@@H](Cc1ccc(O)c([N+](=O)[O-])c1)C(=O)O; dPhe(4-NO2) = N[C@H](Cc1ccc([N+](=O)[O-])cc1)C(=O)O; Tyr(3,5-I2) = N[C@@H](Cc1cc(I)c(O)c(I)c1)C(=O)O; Phe(4-COOH) = N[C@@H](Cc1ccc(C(=O)O)cc1)C(=O)O; Bip = N[C@@H](Cc1ccc(-c2ccccc2)cc1)C(=O)O; Phe(3-OMe) = COc1cccc(C[C@H](N)C(=O)O)c1; Phe(2-CN) = N#Cc1ccccc1C[C@H](N)C(=O)O; Phe(3-Me) = Cc1cccc(C[C@H](N)C(=O)O)c1; hTyr = N[C@@H](CCc1ccc(O)cc1)C(=O)O; Val(3-OH) = CC(C)(O)[C@H](N)C(=O)O; aIle = CC[C@@H](C)[C@H](N)C(=O)O; 3Pal = N[C@@H](Cc1cccnc1)C(=O)O; 4Pal = N[C@@H](Cc1ccncc1)C(=O)O; 2Thi = N[C@@H](Cc1cccs1)C(=O)O; Cha = N[C@@H](CC1CCCCC1)C(=O)O; Cit = NC(=O)NCCC[C@H](N)C(=O)O; Carboxymethyl = O=C(O)C*; NMeA = CN[C@@H](C)C(=O)O; Nle = CCCC[C@H](N)C(=O)O; Orn = NCCC[C@H](N)C(=O)O; Pra = C#CC[C@H](N)C(=O)O; Dab = NCC[C@H](N)C(=O)O; Dap = NC[C@H](N)C(=O)O

Molecular target: T1, PE-labeled human PD-L1-Ig binding to Jurkat cell line over-expressing human PD-1 (Jurkat-PD-1) (Homo sapiens, UniProt Q15116)
T1 construct: expressed in transfected cells; host or cells: Jurkat
Test: Jurkat-PD-1 Cell Binding High-Content Screening Assay (CBA): Method 1
Settings: Jurkat-hPD-1 cells, PE-labeled PD-L1-Ig 20 nM final; read-out: Jurkat HPDL1 PD1 IC50 (uM) (Method 1)

T1 sequence (Q15116 25-288): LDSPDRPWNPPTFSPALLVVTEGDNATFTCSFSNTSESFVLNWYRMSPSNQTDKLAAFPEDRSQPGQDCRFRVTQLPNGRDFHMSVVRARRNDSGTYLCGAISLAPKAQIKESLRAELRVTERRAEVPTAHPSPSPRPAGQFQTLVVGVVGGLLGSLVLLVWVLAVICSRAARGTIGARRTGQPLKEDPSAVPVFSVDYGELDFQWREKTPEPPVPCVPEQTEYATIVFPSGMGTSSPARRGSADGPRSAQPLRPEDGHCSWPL

Row | Structure (SMILES) | IC50
1 | CC(C)C[C@@H]1NC(=O)[C@H](Cc2c[nH]c3ccccc23)NC(=O)[C@H](CC(=O)O)NC(=O)[C@H](Cc2ccc(OCC(=O)O)cc2)NC(=O)[C@H](Cc2ccncc2)NC(=O)CSC[C@@H](C(=O)N[C@@H](C)C(N)=O)NC(=O)[C@H](CO)NC(=O)[C@H](C(C)C)NC(=O)[C@H](CC(C)C)NC(=O)[C@H](CC(N)=O)NC(=O)[C@@H](CC(C)C)NC(=O)[C@H](C)N(C)C(=O)[C@H](C(C)C)NC(=O)[C@H](Cc2ccc(-c3ccccc3)cc2)NC1=O [Compound 1592] ({CH2CO}-[4Pal]Y(Carboxymethyl)DWL[Bip]V[NMeA][dL]NLVSCA-NH2; thioether N-14) | 0.01 µM
2 | CC(=O)NCC[C@H](NC(=O)[C@@H]1CSCC(=O)N[C@@H](Cc2cccs2)C(=O)N[C@@H](Cc2ccc(OCC(=O)O)cc2)C(=O)N[C@@H](CC(=O)O)C(=O)N[C@@H](Cc2cccc(C)c2)C(=O)N[C@@H](Cc2ccc(C(=O)O)cc2)C(=O)N[C@@H](Cc2ccc(-c3ccccc3)cc2)C(=O)N[C@@H](Cc2ccc(OCC(=O)O)cc2)C(=O)N(C)[C@@H](C)C(=O)N[C@H](CC(C)C)C(=O)N[C@@H](CCN)C(=O)N[C@@H](CC2CCCCC2)C(=O)N[C@@H](C(C)(C)O)C(=O)N[C@@H](Cc2cnc[nH]2)C(=O)N1)C(N)=O [Compound 2163] ({CH2CO}-[2Thi]Y(Carboxymethyl)D[Phe(3-Me)][Phe(4-COOH)][Bip]Y(Carboxymethyl)[NMeA][dL][Dab][Cha][Val(3-OH)]HC[Dab](Ac)-NH2; thioether N-14) | 0.01 µM
3 | COc1cccc(C[C@@H]2NC(=O)[C@H](CN)NC(=O)CSC[C@@H](C(=O)N[C@@H](C)C(N)=O)NC(=O)[C@H]([C@@H](C)O)NC(=O)[C@H](C(C)C)NC(=O)[C@H](CC(C)C)NC(=O)[C@H](CCN)NC(=O)[C@@H](CC(C)C)NC(=O)[C@H](C)N(C)C(=O)[C@H](CCCNC(=N)N)NC(=O)[C@H](Cc3ccc(-c4ccccc4)cc3)NC(=O)[C@H](C(C)C)NC(=O)[C@H](Cc3c[nH]c4ccccc34)NC(=O)[C@H](CC(=O)O)NC2=O)c1 [Compound 1453] ({CH2CO}-[Dap][Phe(3-OMe)]DWV[Bip]R[NMeA][dL][Dab]LVTCA-NH2; thioether N-14) | 0.08 µM
4 | CC(C)C[C@@H]1NC(=O)[C@H](CCN)NC(=O)[C@@H](CC(C)C)NC(=O)[C@H](C)N(C)C(=O)[C@H](CCCNC(=N)N)NC(=O)[C@H](Cc2ccc(-c3ccccc3)cc2)NC(=O)[C@H](C(C)C)NC(=O)[C@H](Cc2ccccc2C#N)NC(=O)[C@H](CC(=O)O)NC(=O)[C@H](Cc2ccc(O)cc2)NC(=O)[C@H](Cc2ccccc2)NC(=O)CSC[C@@H](C(=O)N[C@@H](C)C(N)=O)NC(=O)[C@H]([C@@H](C)O)NC(=O)[C@H](C(C)C)NC1=O [Compound 1204] ({CH2CO}-FYD[Phe(2-CN)]V[Bip]R[NMeA][dL][Dab]LVTCA-NH2; thioether N-14) | 0.33 µM
5 | CC(C)C[C@@H]1NC(=O)[C@H](CCCNC(=N)N)NC(=O)[C@@H](Cc2ccc([N+](=O)[O-])cc2)NC(=O)[C@H](C)N(C)C(=O)[C@H](CCCNC(=N)N)NC(=O)[C@H](Cc2ccc(-c3ccccc3)cc2)NC(=O)[C@H](C(C)C)NC(=O)[C@H](Cc2c[nH]c3ccccc23)NC(=O)[C@H](CC(=O)O)NC(=O)[C@H](Cc2ccc(O)cc2)NC(=O)[C@H](Cc2ccccc2)NC(=O)CSC[C@@H](C(=O)N[C@@H](C)C(N)=O)NC(=O)[C@H]([C@@H](C)O)NC(=O)[C@H](C(C)C)NC1=O [Compound 1102] ({CH2CO}-FYDWV[Bip]R[NMeA][dPhe(4-NO2)]RLVTCA-NH2; thioether N-14) | 0.3 µM
6 | CC(C)C[C@@H]1NC(=O)[C@H](CCCN)NC(=O)[C@@H](CC(C)C)NC(=O)[C@H](C)N(C)C(=O)[C@H](CCCNC(=N)N)NC(=O)[C@H](Cc2ccc(-c3ccccc3)cc2)NC(=O)[C@H](C(C)C)NC(=O)[C@H](Cc2c[nH]c3ccccc23)NC(=O)[C@H](CC(=O)O)NC(=O)[C@H](Cc2ccc(O)c([N+](=O)[O-])c2)NC(=O)[C@H](CC(N)=O)NC(=O)CSC[C@@H](C(=O)N[C@@H](C)C(N)=O)NC(=O)[C@H]([C@@H](C)O)NC(=O)[C@H](C(C)C)NC1=O [Compound 1154] ({CH2CO}-N[Tyr(3-NO2)]DWV[Bip]R[NMeA][dL][Orn]LVTCA-NH2; thioether N-14) | 0.03 µM
7 | CC(C)C[C@@H]1NC(=O)[C@H](CCCNC(=N)N)NC(=O)[C@@H](CC(C)C)NC(=O)[C@H](C)N(C)C(=O)[C@H](CCCNC(=N)N)NC(=O)[C@H](Cc2ccc(-c3ccccc3)cc2)NC(=O)[C@H](C(C)C)NC(=O)[C@H](Cc2c[nH]c3ccccc23)NC(=O)[C@H](CC(=O)O)NC(=O)[C@H](Cc2ccc(O)cc2)NC(=O)[C@H](CCC(N)=O)NC(=O)CSC[C@@H](C(=O)N[C@@H](C)C(N)=O)NC(=O)[C@H]([C@@H](C)O)NC(=O)[C@H](C(C)C)NC1=O [Compound 1046] ({CH2CO}-QYDWV[Bip]R[NMeA][dL]RLVTCA-NH2; thioether N-14) | 0.1 µM
8 | CC(C)C[C@@H]1NC(=O)[C@H](CCCNC(=N)N)NC(=O)[C@@H](CC(C)C)NC(=O)[C@H](C)N(C)C(=O)[C@H](CCCNC(=N)N)NC(=O)[C@H](Cc2ccc(-c3ccccc3)cc2)NC(=O)[C@H](C(C)C)NC(=O)[C@H](Cc2c[nH]c3ccccc23)NC(=O)[C@H](CC(=O)O)NC(=O)[C@H](Cc2cc(I)c(O)c(I)c2)NC(=O)[C@H](Cc2ccccc2)NC(=O)CSC[C@@H](C(=O)N[C@@H](C)C(N)=O)NC(=O)[C@H]([C@@H](C)O)NC(=O)[C@H](C(C)C)NC1=O [Compound 1093] ({CH2CO}-F[Tyr(3,5-I2)]DWV[Bip]R[NMeA][dL]RLVTCA-NH2; thioether N-14) | 0.05 µM
9 | CC(C)C[C@@H]1NC(=O)[C@H](CCN)NC(=O)[C@@H](CC(C)C)NC(=O)[C@H](C)N(C)C(=O)[C@H](CCCNC(=N)N)NC(=O)[C@H](Cc2ccc(-c3ccccc3)cc2)NC(=O)[C@H](C(C)C)NC(=O)[C@H](Cc2c[nH]c3ccccc23)NC(=O)[C@H](CC(=O)O)NC(=O)[C@H](Cc2ccc(OCC(=O)O)cc2)NC(=O)[C@H](Cc2cccnc2)NC(=O)CSC[C@@H](C(=O)N[C@@H](C)C(N)=O)NC(=O)[C@H]([C@@H](C)O)NC(=O)[C@H](C(C)C)NC1=O [Compound 1158] ({CH2CO}-[3Pal]Y(Carboxymethyl)DWV[Bip]R[NMeA][dL][Dab]LVTCA-NH2; thioether N-14) | 0.03 µM
10 | CC(C)C[C@@H]1NC(=O)[C@H](CCCCN)NC(=O)[C@@H](CC(C)C)NC(=O)[C@H](C)N(C)C(=O)[C@H](CCCNC(=N)N)NC(=O)[C@H](Cc2ccc(-c3ccccc3)cc2)NC(=O)[C@H](C(C)C)NC(=O)[C@H](Cc2c[nH]c3ccccc23)NC(=O)[C@H](CC(=O)O)NC(=O)[C@H](Cc2ccc(O)cc2)NC(=O)[C@H](Cc2ccccc2)NC(=O)CSC[C@@H](C(=O)N[C@@H](CO)C(N)=O)NC(=O)[C@H]([C@@H](C)O)NC(=O)[C@H](C(C)C)NC1=O [Compound 1184] ({CH2CO}-FYDWV[Bip]R[NMeA][dL]KLVTCS-NH2; thioether N-14) | 0.13 µM
11 | CC[C@@H](C)[C@@H]1NC(=O)[C@H](Cc2ccc(-c3ccccc3)cc2)NC(=O)[C@H](CC(C)C)NC(=O)[C@H](Cc2cccc(C)c2)NC(=O)[C@H](CC(=O)O)NC(=O)[C@H](Cc2ccncc2)NC(=O)[C@H](Cc2ccc(OCC(=O)O)cc2)NC(=O)CSC[C@@H](C(N)=O)NC(=O)[C@H](CO)NC(=O)[C@H](C(C)C)NC(=O)[C@H](CC(C)C)NC(=O)[C@H](CC(N)=O)NC(=O)[C@@H](CC(C)C)NC(=O)[C@H](C)N(C)C1=O [Compound 1638] ({CH2CO}-Y(Carboxymethyl)[4Pal]D[Phe(3-Me)]L[Bip][aIle][NMeA][dL]NLVSC-NH2; thioether N-14) | 0.07 µM
12 | CC(C)C[C@@H]1NC(=O)[C@H](CCCN)NC(=O)[C@@H](CC(C)C)NC(=O)[C@H](C)N(C)C(=O)[C@H](CCCNC(N)=O)NC(=O)[C@H](Cc2ccc(-c3ccccc3)cc2)NC(=O)[C@H](C(C)C)NC(=O)[C@H](Cc2c[nH]c3ccccc23)NC(=O)[C@H](CC(=O)O)NC(=O)[C@H](Cc2ccc(O)cc2)NC(=O)[C@H](CC(N)=O)NC(=O)CSC[C@@H](C(=O)N[C@@H](C)C(N)=O)NC(=O)[C@H]([C@@H](C)O)NC(=O)[C@H](C(C)C)NC1=O [Compound 1234] ({CH2CO}-NYDWV[Bip][Cit][NMeA][dL][Orn]LVTCA-NH2; thioether N-14) | 0.03 µM
13 | C#CC[C@H](NC(=O)CNC(=O)[C@@H]1CSCC(=O)N[C@@H](Cc2ccc(OCC(=O)O)cc2)C(=O)N[C@@H](Cc2ccc(C(=O)O)cc2)C(=O)N[C@@H](CC(=O)O)C(=O)N[C@@H](Cc2c[nH]c3ccccc23)C(=O)N[C@@H](CC(C)C)C(=O)N[C@@H](Cc2ccc(-c3ccccc3)cc2)C(=O)N[C@@H](C(C)C)C(=O)N(C)[C@@H](C)C(=O)N[C@H](CC(C)C)C(=O)N[C@@H](CCN)C(=O)N[C@@H](CC2CCCCC2)C(=O)N[C@@H](C(C)C)C(=O)N[C@@H](CO)C(=O)N1)C(=O)O [Compound 1934] ({CH2CO}-Y(Carboxymethyl)[Phe(4-COOH)]DWL[Bip]V[NMeA][dL][Dab][Cha]VSCG[Pra]-OH; thioether N-14) | 0.01 µM
14 | CC(C)C[C@@H]1NC(=O)[C@H](CCN)NC(=O)[C@@H](CC(C)C)NC(=O)[C@H](C)N(C)C(=O)[C@H](CCCNC(=N)N)NC(=O)[C@H](Cc2ccc(-c3ccccc3)cc2)NC(=O)[C@H](C(C)C)NC(=O)[C@H](Cc2c[nH]c3ccccc23)NC(=O)[C@H](CC(=O)O)NC(=O)[C@H](CCc2ccc(O)cc2)NC(=O)[C@H](CC(N)=O)NC(=O)CSC[C@@H](C(=O)N[C@@H](C)C(N)=O)NC(=O)[C@H]([C@@H](C)O)NC(=O)[C@H](C(C)C)NC1=O [Compound 1354] ({CH2CO}-N[hTyr]DWV[Bip]R[NMeA][dL][Dab]LVTCA-NH2; thioether N-14) | 0.02 µM
15 | CCCC[C@@H]1NC(=O)[C@H](Cc2ccc(-c3ccccc3)cc2)NC(=O)[C@H](C(C)C)NC(=O)[C@H](Cc2c[nH]c3ccccc23)NC(=O)[C@H](CC(=O)O)NC(=O)[C@H](Cc2ccc(O)cc2)NC(=O)[C@H](CC(N)=O)NC(=O)CSC[C@@H](C(=O)N[C@@H](C)C(N)=O)NC(=O)[C@H]([C@@H](C)O)NC(=O)[C@H](C(C)C)NC(=O)[C@H](CC(C)C)NC(=O)[C@H](CCN)NC(=O)[C@@H](CC(C)C)NC(=O)[C@H](C)N(C)C1=O [Compound 1271] ({CH2CO}-NYDWV[Bip][Nle][NMeA][dL][Dab]LVTCA-NH2; thioether N-14) | 0.03 µM
